US7834008B2, “Cyclopropyl derivatives as NK3 receptor antagonists” (H. Lundbeck A/S, priority 2003, dated 2010)

target: T1, human NK3 receptor (Homo sapiens, UniProt P29371); assay: Fluorometric Imaging Plate Reader (FLIPR) calcium assay, antagonist test against NKB; type: cell-based; settings: BHK cells stably expressing the human NK3 receptor, EC85 of NKB (app. 1 nM)
T1 construct: expressed in transfected cells
T1 sequence (P29371 1-465): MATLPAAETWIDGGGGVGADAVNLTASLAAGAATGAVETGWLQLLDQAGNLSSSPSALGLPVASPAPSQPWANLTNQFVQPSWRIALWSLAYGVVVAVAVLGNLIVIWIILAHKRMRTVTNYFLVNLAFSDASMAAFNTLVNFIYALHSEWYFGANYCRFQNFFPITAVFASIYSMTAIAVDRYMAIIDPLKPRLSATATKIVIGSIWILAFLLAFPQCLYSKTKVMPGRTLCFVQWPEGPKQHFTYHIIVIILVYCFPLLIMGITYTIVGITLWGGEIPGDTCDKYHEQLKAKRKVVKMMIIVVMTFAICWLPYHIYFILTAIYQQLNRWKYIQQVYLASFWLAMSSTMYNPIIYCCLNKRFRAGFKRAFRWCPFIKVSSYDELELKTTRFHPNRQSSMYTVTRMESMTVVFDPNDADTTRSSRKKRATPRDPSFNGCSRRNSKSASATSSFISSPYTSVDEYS
Description: The Fluorometric Imaging Plate Reader (FLIPR) assay: The compounds were analysed for efficacy profile in FLIPR assays similar to assays described in Jerman, J C et al: Eur J Pharmacol. 2001, 414, p 23-30. BHK cells (cf. Example 20) stably expressing the human NK3 receptor were seeded in 100 μl media in black walled clear-base 96-wells plates (Costar) aiming at a confluency of 95-100% at the day of assay. The assay was performed according to the calcium assay kit (Molecular Devices). Briefly, the calcium assay reagent was dissolved in Hanks BSS (HBSS) buffer, pH 7.4 containing 20 mM Hepes and 2.5 mM probinicid. An equal volume (100 μl) of the calcium assay reagent solution was added to the wells and the plates were incubated for 60 min at 37° C. The plates were subsequently placed in the FLIPR for examination of fluorescence.
Compounds were diluted in HBSS buffer containing 20 mM Hepes prior to test. For test of agonist activity 50 μl of compound was added to the wells and the plates were analysed for 3 minutes in the FLIPR. For test of antagonist activity, 25 μl of compound was added to the wells and the plate was analysed for a 5 minute period. Subsequently, the wells were added 25 μl of an EC85 (final concentration) of NKB (app. 1 nM) previously determined from a dose-response curve with NKB. The plates were subsequently read for 3 minutes before termination. As controls, selected wells on all plates were added only 100 nM of the NK3 receptor agonist NKB or 2 μM of the calcium ionophor ionomycin. The maximal increase in fluorescence over background following each ligand addition was determined and analysed.

Compound | inhibition of the NKB-mediated activation of the NK3 receptor
CC(=O)N1CC2(CCN(C[C@@H]3C[C@@]3(C(=O)N(C)Cc3ccc(F)cc3)c3ccccc3)CC2)c2ccccc21 [Compound 23a] | inhibited the NKB-mediated activation of the NK3 receptor
CC(=O)N1CC2(CCN(C[C@@H]3C[C@@]3(C(=O)N(C)Cc3ccc(F)cc3)c3ccccc3)CC2)c2cc(F)ccc21 [Compound 25a] | inhibited the NKB-mediated activation of the NK3 receptor
CC(=O)N1CC2(CCN(C[C@@H]3C[C@@]3(C(=O)N(C)Cc3ccc(F)cc3)c3ccc(F)cc3)CC2)c2cc(F)ccc21 [Compound 32a] | inhibited the NKB-mediated activation of the NK3 receptor
CN(Cc1ccc(F)cc1)C(=O)[C@@]1(c2ccccc2)C[C@H]1CN1CCC(C(=O)N2CCCCC2)(c2ccccc2)CC1 [Compound 42a, (1S,2R)-1-Phenyl-2-[4-phenyl-4-(piperidine-1-carbonyl)-piperidin-1-ylmethyl]-cyclopropanecarboxylic acid (4-fluoro-benzyl)-methyl-amide] | inhibited the NKB-mediated activation of the NK3 receptor
CC(=O)NC1(c2ccccc2)CCN(C[C@@H]2C[C@@]2(C(=O)N(C)Cc2ccc(F)cc2)c2ccc(Cl)cc2)CC1 [Compound 44a, (1S,2R)-2-(4-Acetylamino-4-phenyl-piperidin-1-ylmethyl)-1-(4-chloro-phenyl)-cyclopropanecarboxylic acid (4-fluoro-benzyl)-methyl-amide] | inhibited the NKB-mediated activation of the NK3 receptor
CC(=O)NC1(c2ccccc2)CCN(C[C@@H]2C[C@@]2(C(=O)N(C)Cc2ccccc2Cl)c2ccc(Cl)cc2)CC1 [Compound 45a, (1S,2R)-2-(4-Acetylamino-4-phenyl-piperidin-1-ylmethyl)-1-(4-chloro-phenyl)-cyclopropanecarboxylic acid (2-chloro-benzyl)-methyl-amide] | inhibited the NKB-mediated activation of the NK3 receptor
(1S,2R)-1-(3,4-Difluoro-phenyl)-2-[4-phenyl-4-(piperidine-1-carbonyl)-piperidin-1-ylmethyl]-cyclopropanecarboxylic acid-methyl-amide [Compound 33a] | inhibited the NKB-mediated activation of the NK3 receptor

test system: not given; assay: not given; settings: in particular positive symptoms; cited from earlier work

Compound | effect against schizophrenia
CC(=O)N(C)C1(c2ccccc2)CCN(CCC[C@]2(c3ccc(Cl)c(Cl)c3)CCCN(C(=O)c3ccccc3)C2)CC1 [SR142801] | has effect against schizophrenia
